Laboratory results published in patent publication US20080319181A1, “Method of Making an Artificial Nuclease for Anti-viral, Anti-bacterial Applications” (The Government of the United States of America, as …, priority 2004, published 2008).

What was measured:
Assay type in all cases: biochemical
[1] = Hydrolysis of BNPP by cobalt cyclen complexes (2nd order rate constants); details: 50° C., activation using sodium hydroxide
Protocol: The hydrolysis of BNPP by both Cocyc and 2 at 50° C., following activation using sodium hydroxide, has been measured (see Table 1). The second-order rate constants at pH 8.2 for both cyclen and 2 were similar at 14 and 12 M^−1 min^−1, respectively. The rate increased at pH 7.3 to a value of 19 M^−1 min^−1 for cyclen as compared to the published value of 2.8 M^−1 min^−1 at pH 7 (Chin, J.; Banaszczyk, M.; Jubian, V.; Zou, X. J. Am. Chem. Soc. 1989, 111, 186-190, the entire contents of which is incorporated herein by reference). The difference between the published value and ours can be attributed to different experimental conditions, such as buffer. pH, and the ratio of catalyst to substrate.
The much lower hydrolysis rate shown at pH 7.3 for Cocycmba is surprising. In order to determine whether the differences observed were mainly due to the carboxylic acid or to the presence of the benzene ring, the kinetics of 3 were measured at pH 7.3 and found to be 14 M^−1 min^−1, which is much closer to the Cocyc rate. Methylation of the benzoic acid takes away both the negative charge and an ability to effectively hydrogen bond. Therefore the results imply that the behavior of 2 can be mostly ascribed to the presence of the additional charge and the potential for hydrogen bonding. For example, the acid dissociation constants of cyclen of 5.6 and 8.0 mean that between pH 8.2 and 7.3 complexes 1 and 2 should convert from predominantly the dihydroxo to the aquo-hydroxo form (see FIG. 2). Since the benzoic acid is in the benzoate form (pKa 4.2), the increasing net positive charge at pH 7.3 of the coordination site may allow the benzoate to approach closer to Co(III) and interfere with the hydrolysis of BNPP.

pBluescript plasmid DNA = assay: Hydrolysis (nicking) of plasmid DNA, agarose gel; details: pH 7; 5 mM cobalt complex; 0.1M MOPS; 37° C., approximately 16 hours; NIH Image
Protocol: DNA was digested with cocycmba and cocycmmb at three pH conditions (FIG. 3). Hydrolysis of the phosophodiester bonds of the double stranded (ds) plasmid DNA should lead to a conversion from the covalently closed supercoiled form to the nicked form of the plasmid. […] Plasmid DNA digested with a nicking enzyme (lane 1 FIG. 3) confirms that the slower moving band observed in digests with the cobalt catalysts is the nicked form of the plasmid.
Digests run overnight at 37° C. for approximately 16 hours on a 1.5% agarose gel. Controls with no cobalt catalyst were always run in parallel. b) 5 mM cocycmmb and 1.19 μg (0.168 mM bp) pBluescript plasmid DNA in 0.1M MOPS buffer at pH 7, 8, and 10 run under identical conditions. 1=Nickase+DNA, 2=DNA. 3=Cobalt complex+DNA at pH 7.4=pH 7 control, 5=Cobalt complex+DNA at pH 8, 6=pH 8 control, 7=Cobalt complex+DNA at pH 10, 8=pH 10 control Nickase reactions were performed at pH 7 using a 4 hour, 37° C. incubation of 1.18 μg pBluescript plasmid DNA.

Luciferase control-RNA = assay: Western blot analysis of effect on protein translation (Rabbit Reticulocyte Lysate)
Protocol: Luciferase control-RNA (at a final concentration of 0.4 ug/mL) was incubated with increasing concentrations of Cocycmmb for 24 h in 1× HBS buffer (pH 7.4) for 24 h. After the incubation period, the RNA template was translated into luciferase protein using the Rabbit Reticulocyte Lysate translation system (Promega) according to the manufacturer's instructions. After translation, the reaction was analyzed by reducing SDS-PAGE and western blotting to monitor the presence of the 60 kDa luciferase protein product. An aliquot (3 uL) of the translation reaction was run on a 10% NuPAGE Bis-Tris polyacrylamide gel under reducing conditions and transferred to a solid support membrane (PVDF). The membrane was blocked for 1 h in TBS-T (TBS containing 0.05% Tween) and subsequently incubated for 1 h with a 1:2500 dilution of a streptavidin-alkaline phosphatase conjugate. Detection was achieved by exposing the membrane to Western Blue substrate for alkaline phosphatase.
RNA incubations were done as described above except that the Cocycmmb concentration was held constant at 5 mM (and, more recently, down to 0.05 mM) and incubated for varying amounts of time that spanned 24 h. SDS-PAGE and Western blotting were done as described above.

luciferase mRNA = assay: Hydrolysis of RNA, denaturing agarose gel electrophoresis; details: 1 to 5 mM; 24 h at 25° C. in HBS (FIG. 5)
Protocol: The direct interaction of Co(III)-cycmmb with luciferase mRNA was analyzed by denaturing agarose gel electrophoresis. mRNA template (2 μg at a final concentration of 0.4 mg/mL) was incubated with varying concentrations (1 to 5 mM) of activated Co(III)-cycmmb for 24 h at 25° C. in 5 μL of HBS. Following the incubation, the reactions were analyzed by electrophoresis on a 2% denaturing agarose gel run for 4 h at 40 V. The gel was stained with RiboGreen (Molecular Probes), visualized by UV illumination, and images were quantified using Scion Image using the control incubation (no Co(III)-cycmmb) as a standard (see FIG. 5).

Compound | 2nd Order Rate Constants, hydrolysis of BNPP ([1]; pH 7.3) [M⁻¹ s⁻¹] | 2nd Order Rate Constants, hydrolysis of BNPP ([1]; pH 8.2) [M⁻¹ s⁻¹] | nicked product (pBluescript plasmid DNA) [%] | inhibition of protein production (Luciferase control-RNA; 0.25 mM, 10 minutes incubation time) | luciferase protein band in the Western blot (Luciferase control-RNA; as a function of Cocycmmb concentration and of time of contact with the RNA (FIG. 4)) | hydrolysis of RNA (luciferase mRNA)
COC(=O)c1ccc(CN2CCNCCNCCNCC2)cc1.COS(=O)(=O)[O-].[Cl-].[Cl-].[Co+3] [Cocycmmb, Dichloro{methyl 4-[(1,4,7,10-tetraazacyclododec-1-yl)methyl]-benzoate}cobalt (III) methylsulfate] | 0.233 | 0.183 | 43 | significant inhibition of protein production | absence of the protein band | hydrolyze RNA
dichloro(4-[1,4,7,10-tetraazacyclotetradec-1-yl]methylbennzoic acid)cobalt(III) chloride [Cocycmba] | 0.045 | 0.2 | 25 |  |  | 
